Results: paper PMC9080489, “Synthesis and biological evaluation of 2-aryl-benzimidazole derivatives of dehydroabietic acid as novel tubulin polymerization inhibitors” (RSC Advances, 2018)
Like-named read-outs stand apart in the source and are kept apart here.

Legend:
[1] = test system: human hepatocarcinoma cell line (SMMC-7721); experiment: MTT cytotoxic assay, SMMC-7721; format: cell-based; conditions: MTT, 48 h exposure, read-out: IC50 SMMC-7721
Procedure: (§1) The in vitro antiproliferative activity of DAA derivatives (1–5, 6a–k, 7a–k) were evaluated by MTT assay against human hepatocarcinoma cell line (SMMC-7721), human breast cancer cell line (MDA-MB-231), human cervical carcinoma cell line (HeLa), mouse colon cancer cell line (CT-26) and human normal hepatocyte cell line (QSG-7701). Nocodazole was co-assayed as the positive control and DMEM culture medium containing 0.1% DMSO was used as negative control. The results of the tested compounds expressed as IC50 values (concentration required to inhibit tumor cell proliferation by 50%) were presented in Table 1.
(§2) The human hepatocarcinoma cell line (SMMC-7721), human breast cancer cell line (MDA-MB-231), human cervical carcinoma cell line (HeLa), mouse colon cancer cell line (CT-26) and human normal hepatocyte cells (QSG-7701) used in this study were all obtained from Keygene Biotech., China. These cell lines were maintained in DMEM medium supplemented with 10% heat-inactivated fetal bovine serum in a humidified atmosphere of 5% CO2 at 37 °C.
(§3) The in vitro cytotoxic activities of the benzimidazole derivatives of dehydroabietic acid were evaluated against tested cell lines via the MTT colorimetric method. Briefly, different tumor cells were grown in DMEM medium supplemented with 10% fetal bovine serum, penicillin (100 U mL^−1), and streptomycin (50 μg mL^−1). Cells were harvested at log phase of growth and seeded in 96-well plates (100 μL per well at a density of 2 × 10^5 cells mL^−1). After 24 h incubation at 37 °C and 5% CO2 to allow cell attachment, cultures were exposed to various concentrations of the isolated compounds for 48 h. Finally, MTT solution (2.5 mg mL^−1 in PBS) was added (40 μL per well). Plates were further incubated for 4 h at 37 °C, and the formazan crystals formed were dissolved by adding 150 μL per well of DMSO. Absorption at 570 nm was measured with an ELISA plate reader. The results were expressed as IC50 values with standard deviations, which was defined as the concentration at which 50% survival of cells was discerned. Nocodazole was co-assayed as positive control.

[2] = test system: human breast cancer cell line (MDA-MB-231); experiment: MTT cytotoxic assay, MDA-MB-231; format: cell-based; conditions: MDA-MB-231, MTT, 48 h exposure, read-out: IC50 MDA-MB-231
Procedure: as §1, §2, §3

[3] = test system: human normal hepatocyte cell line (QSG-7701); experiment: MTT cytotoxic assay, QSG-7701; format: cell-based; conditions: QSG7701, 48 h exposure
Procedure: as §1, §2, §3

[4] = test system: human cervical carcinoma cell line (HeLa); experiment: MTT cytotoxic assay, HeLa; format: cell-based; conditions: MTT, 48 h exposure, read-out: IC50 HeLa
Procedure: as §1, §2, §3

[5] = test system: mouse colon cancer cell line (CT-26); experiment: MTT cytotoxic assay, CT-26; format: cell-based; conditions: MTT, 48 h exposure, read-out: IC50 CT-26
Procedure: as §1, §2, §3

Porcine brain tubulin = molecular target: T1, Porcine brain tubulin (Sus scrofa, UniProt P02550+P02554); experiment: In vitro tubulin polymerization inhibition assay (OD340); format: biochemical; conditions: 10 μM, 37 °C, 1 h, versus blank control
T1 construct: purchased Cytoskeleton, Inc. BK004P; host or cells: porcine brain tissue
Procedure: The in vitro tubulin polymerization inhibition assay was carried out by using the Tubulin Polymerization Assay Kit (Cytoskeleton, Inc., USA) according to the protocol in the manual. Porcine brain tubulin was incubated with compound 6j at concentrations of 5 and 10 μM. The positive control colchicine and negative control taxol were co-assayed at the concentration of 10 μM, and G-PEM buffer was used as the blank control.
The tubulin polymerization assay was accomplished using a commercial assay kit (cat. #BK004P) purchased from Cytoskeleton, Inc. (Danvers, MA, USA). Tubulin isolated from porcine brain tissue was used in this tubulin polymerization assay kit. Tubulin polymerizations are followed by an increase in optical density at 340 nm (OD340) over a 60 min period at 37 °C due to the light scattered by microtubule polymer. At first, tubulin (4 mg) was disovled in 1 mL of G-PEM buffer containing 80 mM piperazine-N,N′-bis(2-ethanesulfonic acid) sequisodium salt (PIPES, pH 6.9), 2.0 mM MgCl2, 0.5 mM EGTA and 1 mM GTP to prepare tubulin solution. Subsequently, 10 μL of 10 × stock solutions of the tested compounds at different concentrations were added to a prewarmed 96-well plate and incubated at 37 °C for 2 min, then 90 μL of tubulin solution was also added into each well to initiate the reaction. The optical intensity (OD340) of each well was recorded every 60 s for 60 min (Cytation 3 Cell Imaging Multi-Mode Reader, BioTek Instruments, Inc., USA). Colchicine and taxol were co-assayed as the positive control and negative control, respectively. G-PEM buffer was used as the blank control.

T1 sequence (P02554 whole entry): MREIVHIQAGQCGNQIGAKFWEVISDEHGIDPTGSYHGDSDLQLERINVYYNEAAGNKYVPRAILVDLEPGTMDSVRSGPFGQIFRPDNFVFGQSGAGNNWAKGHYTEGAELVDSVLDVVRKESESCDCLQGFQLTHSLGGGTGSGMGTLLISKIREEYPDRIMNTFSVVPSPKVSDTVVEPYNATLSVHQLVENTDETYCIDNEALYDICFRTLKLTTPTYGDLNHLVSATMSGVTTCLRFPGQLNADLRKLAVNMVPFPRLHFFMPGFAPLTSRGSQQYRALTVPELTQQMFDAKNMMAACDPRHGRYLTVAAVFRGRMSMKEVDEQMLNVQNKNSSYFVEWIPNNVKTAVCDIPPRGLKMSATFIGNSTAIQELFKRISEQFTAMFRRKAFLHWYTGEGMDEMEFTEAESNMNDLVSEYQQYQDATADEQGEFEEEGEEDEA
T1 sequence (P02550 whole entry): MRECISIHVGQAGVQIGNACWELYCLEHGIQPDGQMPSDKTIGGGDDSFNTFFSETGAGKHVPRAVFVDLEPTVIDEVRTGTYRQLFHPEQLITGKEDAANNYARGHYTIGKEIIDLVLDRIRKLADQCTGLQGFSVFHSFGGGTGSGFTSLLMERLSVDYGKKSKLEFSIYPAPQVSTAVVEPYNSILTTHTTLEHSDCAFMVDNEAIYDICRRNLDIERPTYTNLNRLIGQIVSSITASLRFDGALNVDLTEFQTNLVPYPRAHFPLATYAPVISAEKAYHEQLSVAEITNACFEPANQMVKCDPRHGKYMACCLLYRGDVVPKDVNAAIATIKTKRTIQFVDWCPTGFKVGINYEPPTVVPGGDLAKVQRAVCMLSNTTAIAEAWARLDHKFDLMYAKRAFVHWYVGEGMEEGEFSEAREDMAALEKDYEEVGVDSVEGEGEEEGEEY

| melting point | Compound | IC50 ([1]; Homo sapiens, SMMC-7721, 48 h) | IC50 [2] | IC50 [3] | IC50 [4] | IC50 [5] | IC50 ([5]; Mus musculus, CT26, 48 h) | effect on tubulin polymerization speed and final absorbance (OD340) (Porcine brain tubulin) | IC50 [1] |
| --- | --- | --- | --- | --- | --- | --- | --- | --- | --- |
| 150 to 152 °C | COC(=O)[C@]1(C)CCC[C@]2(C)c3cc(-c4cc(OC)c(OC)c(OC)c4)c4nc(-c5ccc(Br)cc5)[nH]c4c3CCC12 (some centres unmarked) [Compound 7h, Methyl 2′-(4-bromophenyl)-12-(3,4,5-trimethoxyphenyl)-13,14-imidazolyl-deisopropyl-dehydroabietate] | > 50 µM | 8.84 ± 1.08 µM | > 50 µM | 29.9 ± 3.07 µM | 2.76 ± 0.26 µM | < 5 µM | – | – |
| 153 to 155 °C | COC(=O)[C@]1(C)CCC[C@]2(C)c3cc(-c4cc(OC)c(OC)c(OC)c4)c4nc(-c5ccccc5)[nH]c4c3CCC12 (some centres unmarked) [Compound 7a, Methyl 2′-phenyl-12-(3,4,5-trimethoxyphenyl)-13,14-imidazolyl-deisopropyl-dehydroabietate] | 9.38 ± 1.02 µM | > 50 µM | > 50 µM | 13.1 ± 1.7 µM | – | 8.25 ± 0.5 µM | – | – |
| – | CC(=O)O[C@H]1C(=O)[C@@]2(C)[C@H]([C@H](OC(=O)c3ccccc3)[C@]3(O)C[C@H](OC(=O)[C@H](O)[C@@H](NC(=O)c4ccccc4)c4ccccc4)C(C)=C1C3(C)C)[C@]1(OC(C)=O)CO[C@@H]1C[C@@H]2O [taxol, reference compound] | – | – | – | – | – | – | obviously increased the speed of tubulin polymerization and the final absorbance | – |
| 168 to 170 °C | COC(=O)[C@]1(C)CCC[C@]2(C)c3cc(-c4cc(OC)c(OC)c(OC)c4)c4nc(-c5ccc(Cl)cc5)[nH]c4c3CCC12 (some centres unmarked) [Compound 7f, Methyl 2′-(4-chlorophenyl)-12-(3,4,5-trimethoxyphenyl)-13,14-imidazolyl-deisopropyl-dehydroabietate] | 11 ± 2.68 µM | 10.1 ± 1.38 µM | > 50 µM | 17.2 ± 2.32 µM | 3.44 ± 0.75 µM | < 5 µM | – | – |
| 142 to 144 °C | COC(=O)[C@]1(C)CCC[C@]2(C)c3cc(Br)c4nc(-c5cccc(F)c5)[nH]c4c3CCC12 (some centres unmarked) [Compound 6d, Methyl 2′-(3-fluorophenyl)-12-bromo-13,14-imidazolyl-deisopropyl-dehydroabietate] | < 5 µM | 12 ± 1.31 µM | > 50 µM | 17.7 ± 3.02 µM | 3.39 ± 0.33 µM | < 5 µM | – | 5.27 ± 0.27 µM |
| 123 to 125 °C | COC(=O)[C@]1(C)CCC[C@]2(C)c3cc(Br)c4nc(-c5ccccc5)[nH]c4c3CCC12 (some centres unmarked) [Compound 6a, Methyl 2′-phenyl-12-bromo-13,14-imidazolyl-deisopropyl-dehydroabietate] | 12.5 ± 0.45 µM | 41.7 ± 2.06 µM | > 50 µM | 16.2 ± 1.73 µM | – | 6.34 ± 0.83 µM | – | – |
